Read-outs that look alike come from different tables or passages of the source.
Experiments:
EGFR(L858R/T790M) = target: T1, EGFR(L858R/T790M) (Homo sapiens, UniProt P00533, L858R/T790M); test: EGFR biochemical assay (HTRF), IC50 determinations
T1 construct: purchased from Carna (GST-a.a. 669-1210)
Description: All EGFR biochemical assays were carried out by HTRF method. […] The substrate peptide Biotin-TK-peptide was purchased from Cis-Bio. […] All reactions were carried out at room temperature in white ProxiPlate™ 384-well Plus plates (PerkinElmer) and were quenched with 5 μL of 0.2 M EDTA at 60 min. Five L of the detection reagents (2.5 ng PT66K and 0.05 μg SAXL per well) were added, the plates were incubated at room temperature for 1 h and then read in EnVision reader. […] For no-preincubation condition, the compounds were added to the assay solution containing ATP and peptide, and the reaction was initiated by addition of enzyme. For pre-incubation conditions, the compounds were added to the assay solution containing enzyme and peptide, and pre-incubated at room temperature for desired period of time, then the reaction was initiated by addition of ATP.

[1] = target: human EGFR WT (NIH/3T3 cells, EGF-induced) (Homo sapiens, UniProt P00533); test: EGFR target modulation in engineered NIH/3T3 cell lines (phospho-EGFR Y1068 AlphaLISA), EGFR WT; assay type: cell-based; details: engineered NIH/3T3 cells, read-out: NIH3T3 IC50 (μM) EGFR (WT)
Description: (§1) EGFR Target Modulation in Engineered NIH/3T3 Cell Lines Tissue Culture.
(§2) The cells were harvested with 0.05% Trypsin/EDTA (Hyclone #SH30236.01), re-suspended in 5% FBS/DMEM Pen/Strep without Puromycin and plated at 9,000 cells per well in 50 μl of media in a 384-well black plate with clear bottoms (Greiner #789068G). The cells were allowed to incubate overnight in a 37° C., 5% CO2 humidified tissue culture incubator. A 12-point test compound curve was prepared by serial diluting a 10 μM stock 1:3 in DMSO in a 384-well compound plate (Greiner #789201L). The serial diluted compounds were transferred to the plate containing cells by using a 50 nl Pin Head device (Perkin Elmer) and the cells were placed back in the incubator for 3 hours. Only the EGFR WT-expressing cells were induced with 50 ng/ml EGF (Preprotech #AF-100-15) for 5 minutes before lysis. […] The plates were shaken at 4° C. for 5 minutes with foil top at maximum speed. […] The plates were sealed with a foil top and frozen at −80° C. and thawed when needed.
(§3) The frozen aliquots were thawed and briefly centrifuged. All antibodies and beads were diluted in 1× AlphaLISA HiBlock Buffer (PE #AL004C). […] Goat anti-total EGFR (R&D Systems #AF231) was added and allowed to equilibrate for 1 hour at room temperature at 1 nM final concentration.
(§4) With these parameters, the IC50's for each compound in each cell line was calculated using non-linear curve fitting analysis.

[2] = target: human EGFR L858R (NIH/3T3 cells) (Homo sapiens, UniProt P00533, L858R); test: EGFR target modulation in engineered NIH/3T3 cell lines (phospho-EGFR Y1068 AlphaLISA), EGFR L858R; assay type: cell-based; details: engineered NIH/3T3 cells, read-out: NIH3T3 IC50 (μM) EGFR (L858R)
Description: as §1, §2, §3, §4

[3] = target: human EGFR L858R/T790M (NIH/3T3 cells) (Homo sapiens, UniProt P00533, L858R/T790M); test: EGFR target modulation in engineered NIH/3T3 cell lines (phospho-EGFR Y1068 AlphaLISA), EGFR L858R/T790M; assay type: cell-based; details: engineered NIH/3T3 cells, read-out: NIH3T3 IC50 (μM) EGFR (L858R/T790M)
Description: as §1, §2, §3, §4

[4] = EGFR (L858R/T790M) with 90 min pre-incubation, read-out: IC50 (μM) Column B
[5] = EGFR (L858R/T790M) with no pre-incubation, read-out: IC50 (μM) Column A

human EGFR L858R (NIH/3T3 cells), sequence (P00533 25-1210 L858R): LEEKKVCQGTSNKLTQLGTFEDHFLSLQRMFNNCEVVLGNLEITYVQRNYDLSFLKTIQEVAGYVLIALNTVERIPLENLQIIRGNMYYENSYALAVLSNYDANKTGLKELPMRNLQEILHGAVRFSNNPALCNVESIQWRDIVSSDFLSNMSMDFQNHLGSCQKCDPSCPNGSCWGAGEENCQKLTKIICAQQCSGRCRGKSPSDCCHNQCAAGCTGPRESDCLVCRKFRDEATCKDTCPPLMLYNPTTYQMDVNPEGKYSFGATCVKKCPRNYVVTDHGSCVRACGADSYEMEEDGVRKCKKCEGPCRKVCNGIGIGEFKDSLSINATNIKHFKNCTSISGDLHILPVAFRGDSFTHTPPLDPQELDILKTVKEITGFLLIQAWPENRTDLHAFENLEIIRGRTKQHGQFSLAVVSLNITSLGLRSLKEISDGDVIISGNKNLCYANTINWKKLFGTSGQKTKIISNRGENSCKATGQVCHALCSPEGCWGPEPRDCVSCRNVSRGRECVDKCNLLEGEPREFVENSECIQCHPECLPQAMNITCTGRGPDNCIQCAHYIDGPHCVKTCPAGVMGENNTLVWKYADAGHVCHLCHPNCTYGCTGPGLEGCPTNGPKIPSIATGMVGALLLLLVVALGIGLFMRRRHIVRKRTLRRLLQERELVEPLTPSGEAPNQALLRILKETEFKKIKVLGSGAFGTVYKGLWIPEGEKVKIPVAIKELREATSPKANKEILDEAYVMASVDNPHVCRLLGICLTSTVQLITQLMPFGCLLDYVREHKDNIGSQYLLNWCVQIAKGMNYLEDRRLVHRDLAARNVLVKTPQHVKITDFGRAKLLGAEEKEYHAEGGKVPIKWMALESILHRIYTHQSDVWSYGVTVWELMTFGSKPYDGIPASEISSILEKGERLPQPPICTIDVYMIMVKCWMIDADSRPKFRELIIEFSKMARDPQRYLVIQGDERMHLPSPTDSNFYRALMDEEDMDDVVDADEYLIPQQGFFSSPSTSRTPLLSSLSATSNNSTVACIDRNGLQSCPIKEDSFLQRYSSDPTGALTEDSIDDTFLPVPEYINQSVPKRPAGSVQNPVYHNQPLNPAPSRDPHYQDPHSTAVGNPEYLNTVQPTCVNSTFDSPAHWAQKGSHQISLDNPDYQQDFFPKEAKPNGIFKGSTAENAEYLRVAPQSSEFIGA
human EGFR WT (NIH/3T3 cells, EGF-induced), sequence (P00533 25-1210): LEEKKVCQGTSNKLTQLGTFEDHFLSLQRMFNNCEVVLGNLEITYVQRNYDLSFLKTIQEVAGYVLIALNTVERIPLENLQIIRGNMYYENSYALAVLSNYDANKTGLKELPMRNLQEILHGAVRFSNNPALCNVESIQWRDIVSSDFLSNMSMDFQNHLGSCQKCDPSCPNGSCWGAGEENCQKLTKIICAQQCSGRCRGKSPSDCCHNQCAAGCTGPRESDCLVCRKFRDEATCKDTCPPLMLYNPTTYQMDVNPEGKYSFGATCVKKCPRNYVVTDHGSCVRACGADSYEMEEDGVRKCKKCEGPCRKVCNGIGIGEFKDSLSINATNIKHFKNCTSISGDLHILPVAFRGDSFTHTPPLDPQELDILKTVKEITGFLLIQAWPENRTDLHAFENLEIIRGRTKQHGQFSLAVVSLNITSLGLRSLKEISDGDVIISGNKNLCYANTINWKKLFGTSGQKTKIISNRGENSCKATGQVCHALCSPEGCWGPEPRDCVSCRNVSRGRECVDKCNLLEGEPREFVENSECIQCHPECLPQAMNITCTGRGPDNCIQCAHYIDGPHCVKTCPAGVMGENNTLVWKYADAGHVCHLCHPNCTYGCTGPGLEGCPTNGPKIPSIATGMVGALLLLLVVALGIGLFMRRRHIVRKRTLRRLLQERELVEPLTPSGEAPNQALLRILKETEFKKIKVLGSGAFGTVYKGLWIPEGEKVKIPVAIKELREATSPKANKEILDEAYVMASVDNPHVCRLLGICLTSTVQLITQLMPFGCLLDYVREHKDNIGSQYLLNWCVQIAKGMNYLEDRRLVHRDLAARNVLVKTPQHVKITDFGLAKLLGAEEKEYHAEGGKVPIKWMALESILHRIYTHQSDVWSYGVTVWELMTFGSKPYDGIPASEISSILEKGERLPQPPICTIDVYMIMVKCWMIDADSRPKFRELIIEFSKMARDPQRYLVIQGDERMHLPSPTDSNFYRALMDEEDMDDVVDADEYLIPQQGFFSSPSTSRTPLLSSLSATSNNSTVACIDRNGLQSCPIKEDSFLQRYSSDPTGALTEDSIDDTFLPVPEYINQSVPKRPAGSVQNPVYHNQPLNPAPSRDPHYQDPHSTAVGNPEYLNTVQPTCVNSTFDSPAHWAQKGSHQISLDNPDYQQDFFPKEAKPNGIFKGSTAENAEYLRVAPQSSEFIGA
human EGFR L858R/T790M (NIH/3T3 cells), sequence (P00533 25-1210 T790M/L858R): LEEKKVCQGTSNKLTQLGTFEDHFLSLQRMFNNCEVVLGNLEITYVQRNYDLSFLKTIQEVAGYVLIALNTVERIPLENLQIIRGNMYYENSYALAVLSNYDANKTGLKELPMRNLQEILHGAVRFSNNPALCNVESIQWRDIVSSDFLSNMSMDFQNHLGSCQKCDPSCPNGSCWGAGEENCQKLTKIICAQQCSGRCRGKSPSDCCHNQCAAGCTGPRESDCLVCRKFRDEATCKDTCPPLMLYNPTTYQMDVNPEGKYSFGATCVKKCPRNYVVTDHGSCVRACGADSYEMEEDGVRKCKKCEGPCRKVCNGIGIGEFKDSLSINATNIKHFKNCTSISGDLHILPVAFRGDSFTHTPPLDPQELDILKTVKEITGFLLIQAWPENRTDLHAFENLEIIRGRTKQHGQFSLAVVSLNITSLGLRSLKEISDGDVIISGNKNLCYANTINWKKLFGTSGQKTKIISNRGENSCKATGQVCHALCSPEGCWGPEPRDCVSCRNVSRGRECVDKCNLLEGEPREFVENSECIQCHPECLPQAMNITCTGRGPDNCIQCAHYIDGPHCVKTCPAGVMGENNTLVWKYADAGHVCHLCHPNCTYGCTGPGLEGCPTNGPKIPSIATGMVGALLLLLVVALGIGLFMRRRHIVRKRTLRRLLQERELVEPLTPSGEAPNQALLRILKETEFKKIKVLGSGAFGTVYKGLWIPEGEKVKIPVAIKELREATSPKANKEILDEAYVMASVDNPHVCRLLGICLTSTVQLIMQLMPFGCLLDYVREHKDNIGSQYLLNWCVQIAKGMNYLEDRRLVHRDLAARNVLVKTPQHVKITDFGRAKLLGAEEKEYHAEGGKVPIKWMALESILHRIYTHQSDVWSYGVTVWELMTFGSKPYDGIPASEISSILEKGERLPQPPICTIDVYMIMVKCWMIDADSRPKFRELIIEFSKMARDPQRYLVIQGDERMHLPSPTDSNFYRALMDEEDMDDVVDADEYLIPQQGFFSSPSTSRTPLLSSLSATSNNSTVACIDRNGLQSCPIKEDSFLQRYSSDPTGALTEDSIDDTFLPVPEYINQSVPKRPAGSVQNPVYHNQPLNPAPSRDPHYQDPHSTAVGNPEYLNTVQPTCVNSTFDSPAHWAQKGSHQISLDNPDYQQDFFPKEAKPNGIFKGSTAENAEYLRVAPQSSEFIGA
T1 sequence (P00533 669-1210 T790M/L858R): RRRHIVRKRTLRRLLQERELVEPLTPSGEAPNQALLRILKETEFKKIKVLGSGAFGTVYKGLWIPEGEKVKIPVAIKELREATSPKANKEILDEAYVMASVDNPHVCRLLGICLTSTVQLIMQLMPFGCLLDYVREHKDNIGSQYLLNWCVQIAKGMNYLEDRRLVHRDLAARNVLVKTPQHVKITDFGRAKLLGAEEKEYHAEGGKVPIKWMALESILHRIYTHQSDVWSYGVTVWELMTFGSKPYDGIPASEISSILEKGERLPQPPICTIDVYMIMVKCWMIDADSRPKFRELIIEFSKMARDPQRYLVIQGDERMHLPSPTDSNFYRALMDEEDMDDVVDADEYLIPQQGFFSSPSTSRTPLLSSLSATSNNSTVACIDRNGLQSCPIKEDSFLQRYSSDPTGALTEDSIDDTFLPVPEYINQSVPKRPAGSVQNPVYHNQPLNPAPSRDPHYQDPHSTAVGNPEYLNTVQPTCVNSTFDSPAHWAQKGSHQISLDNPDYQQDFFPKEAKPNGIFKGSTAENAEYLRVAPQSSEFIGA

Compound | IC50 (EGFR(L858R/T790M); [4]) | IC50 (EGFR(L858R/T790M); [5]) | IC50 [1] | IC50 [2] | IC50 [3]
C=CC(=O)N1CCOCC(n2c(NC(=O)c3cccc(C(F)(F)F)c3)nc3cccc(C)c32)C1 (stereo not shown) [Example 17-14] | 0.005 µM | 0.033 µM | 1.08 µM | 0.016 µM | 0.003 µM
C=CC(=O)N1CCCC[C@@H](n2c(NC(=O)c3cccc(C(F)(F)F)c3)nc3cccc(Cl)c32)C1 [Example 17-18] | < 0.001 µM | 0.014 µM | 2.48 µM | 0.02 µM | 0.004 µM
CC#CC(=O)N1CCCCC(n2c(NC(=O)c3cccc(C(F)(F)F)c3)nc3cccc(C)c32)C1 (stereo not shown) [Example 17-19] | 0.007 µM | 0.33 µM | > 10 µM | 0.33 µM | 0.044 µM
C/C=C/C(=O)N1CCCCC(n2c(NC(=O)c3cccc(C(F)(F)F)c3)nc3cccc(C)c32)C1 (stereo not shown) [Example 17-20] | 0.032 µM | 0.43 µM | > 10 µM | 0.75 µM | 0.073 µM
Cc1cccc2nc(NC(=O)c3ccccn3)n(C3CCCCN(C(=O)/C=C/CN(C)C)C3)c12 (stereo not shown) [Example 17-34] | 0.038 µM | 1.05 µM | > 10 µM | 0.53 µM | 0.221 µM
Cc1cccc2nc(NC(=O)c3ncccn3)n(C3CCCCN(C(=O)/C=C/CN(C)C)C3)c12 (stereo not shown) [Example 17-36] | 0.35 µM | 10.6 µM | > 10 µM | 3.5 µM | 2.96 µM
Cc1cccc2nc(NC(=O)c3ccc4nccn4c3)n(C3CCCCN(C(=O)/C=C/CN(C)C)C3)c12 (stereo not shown) [Example 17-55] | < 0.001 µM | 0.007 µM | 0.022 µM | 0.002 µM | 0.003 µM
Cc1cccc2nc(NC(=O)c3ccnc(N4CCCCC4)c3)n(C3CCCCN(C(=O)/C=C/CN(C)C)C3)c12 (stereo not shown) [Example 17-57] | < 0.001 µM | < 0.001 µM | 0.02 µM | < 0.001 µM | 0.002 µM
Cc1ncc(C(=O)Nc2nc3cccc(C)c3n2C2CCCCN(C(=O)/C=C/CN(C)C)C2)s1 (stereo not shown) [Example 17-64] | 0.001 µM | 0.02 µM | 0.021 µM | 0.002 µM | 0.005 µM
CC1=C(C(=O)N2CCCC[C@@H](n3c(NC(=O)c4ccnnc4)nc4cccc(C)c43)C2)S(=O)(=O)CCO1 [Example 17-88] | 0.04 µM | 0.39 µM | 8.4 µM | 0.158 µM | 0.209 µM
Cc1cccc2nc(NC(=O)c3ccnnc3)n([C@@H]3CCCCN(C(=O)C4=COCCO4)C3)c12 [Example 17-89] | 2.32 µM | 1.01 µM | 0.7 µM | 0.46 µM | 7.5 µM
C=C(CN1CCCCC1)C(=O)N1CCCC[C@@H](n2c(NC(=O)c3ccnnc3)nc3cccc(C)c32)C1 [Example 17-90] | 0.013 µM | 0.199 µM | 0.76 µM | 0.054 µM | 0.055 µM
C=C(CN1CCCC1)C(=O)N1CCCC[C@@H](n2c(NC(=O)c3ccnnc3)nc3cccc(C)c32)C1 [Example 17-91] | 0.007 µM | 0.198 µM | 1.01 µM | 0.033 µM | 0.042 µM
C=C(CN(CC)CC)C(=O)N1CCCC[C@@H](n2c(NC(=O)c3ccnnc3)nc3cccc(C)c32)C1 [Example 17-92] | 0.012 µM | 0.213 µM | 1.83 µM | 0.043 µM | 0.057 µM

The next lines start with the values.

IC50 (EGFR(L858R/T790M); [4]) | IC50 (EGFR(L858R/T790M); [5]) | IC50 [1] | IC50 [2] | IC50 [3] | Compound
< 0.001 µM | 0.005 µM | 0.32 µM | 0.007 µM | 0.004 µM | Cc1cccc2nc(NC(=O)c3cccc(F)c3)n(C3CCCCN(C(=O)/C=C/CN(C)C)C3)c12 (stereo not shown) [Example 17-21]
< 0.001 µM | 0.003 µM | 0.271 µM | 0.004 µM | 0.002 µM | Cc1cccc2nc(NC(=O)c3cc(F)cc(F)c3)n(C3CCCCN(C(=O)/C=C/CN(C)C)C3)c12 (stereo not shown) [Example 17-22]
< 0.001 µM | 0.003 µM | 0.149 µM | 0.004 µM | 0.003 µM | Cc1cccc2nc(NC(=O)c3cccnc3)n(C3CCCCN(C(=O)/C=C/CN(C)C)C3)c12 (stereo not shown) [Example 17-23]
< 0.001 µM | 0.016 µM | 0.75 µM | 0.019 µM | 0.005 µM | Cc1cccc2nc(NC(=O)c3cccc(Cl)c3F)n(C3CCCCN(C(=O)/C=C/CN(C)C)C3)c12 (stereo not shown) [Example 17-31]
< 0.001 µM | 0.014 µM | 0.206 µM | 0.007 µM | 0.004 µM | Cc1cccc2nc(NC(=O)c3ccc(F)c(Cl)c3F)n(C3CCCCN(C(=O)/C=C/CN(C)C)C3)c12 (stereo not shown) [Example 17-32]
0.006 µM | 0.117 µM | 1.92 µM | 0.093 µM | 0.049 µM | Cc1cccc2nc(NC(=O)c3cnccn3)n(C3CCCCN(C(=O)/C=C/CN(C)C)C3)c12 (stereo not shown) [Example 17-38]
0.007 µM | 0.12 µM | 5.2 µM | 0.221 µM | 0.072 µM | Cc1cccc2nc(NC(=O)c3cccnn3)n(C3CCCCN(C(=O)/C=C/CN(C)C)C3)c12 (stereo not shown) [Example 17-39]
< 0.001 µM | 0.008 µM | 0.44 µM | 0.012 µM | 0.004 µM | Cc1cccc(C(=O)Nc2nc3cccc(C)c3n2C2CCCCN(C(=O)/C=C/CN(C)C)C2)c1 (stereo not shown) [Example 17-41]
< 0.001 µM | 0.006 µM | 0.48 µM | 0.014 µM | 0.004 µM | Cc1cccc2nc(NC(=O)c3cccc(Cl)c3)n(C3CCCCN(C(=O)/C=C/CN(C)C)C3)c12 (stereo not shown) [Example 17-43]
< 0.001 µM | 0.007 µM | 0.39 µM | 0.015 µM | 0.003 µM | COc1cccc(C(=O)Nc2nc3cccc(C)c3n2C2CCCCN(C(=O)/C=C/CN(C)C)C2)c1 (stereo not shown) [Example 17-44]
0.001 µM | 0.029 µM | 0.33 µM | 0.006 µM | 0.027 µM | Cc1cccc2nc(NC(=O)c3ccn(C)c(=O)c3)n(C3CCCCN(C(=O)/C=C/CN(C)C)C3)c12 (stereo not shown) [Example 17-49]
< 0.001 µM | 0.009 µM | 0.086 µM | 0.005 µM | 0.009 µM | Cc1cccc2nc(NC(=O)c3ccnc(N(C)C)c3)n(C3CCCCN(C(=O)/C=C/CN(C)C)C3)c12 (stereo not shown) [Example 17-50]
0.002 µM | 0.02 µM | 0.263 µM | 0.017 µM | 0.008 µM | Cc1cccc2nc(NC(=O)c3ccco3)n(C3CCCCN(C(=O)/C=C/CN(C)C)C3)c12 (stereo not shown) [Example 17-56]
0.006 µM | 0.105 µM | 0.37 µM | 0.02 µM | 0.019 µM | Cc1cc(C(=O)Nc2nc3cccc(C)c3n2C2CCCCN(C(=O)/C=C/CN(C)C)C2)oc1C (stereo not shown) [Example 17-59]
< 0.001 µM | 0.004 µM | 0.011 µM | < 0.001 µM | 0.003 µM | Cc1cccc2nc(NC(=O)c3ccnc(C(C)(C)C)c3)n(C3CCCCN(C(=O)/C=C/CN(C)C)C3)c12 (stereo not shown) [Example 17-61]
< 0.001 µM | 0.004 µM | 0.012 µM | 0.002 µM | 0.002 µM | CCOc1cc(C(=O)Nc2nc3cccc(C)c3n2C2CCCCN(C(=O)/C=C/CN(C)C)C2)ccn1 (stereo not shown) [Example 17-65]
< 0.001 µM | 0.005 µM | 0.129 µM | 0.005 µM | 0.009 µM | Cc1cccc2nc(NC(=O)c3ccc4ccccc4c3)n(C3CCCCN(C(=O)/C=C/CN(C)C)C3)c12 (stereo not shown) [Example 17-66]
< 0.001 µM | < 0.001 µM | 0.016 µM | 0.001 µM | < 0.001 µM | Cc1cccc2nc(NC(=O)c3ccnc(Cl)c3)n([C@@H]3CCCCN(C(=O)/C=C/CN(C)C)C3)c12 [Example 17-73]

— patent US9440957B2, “Compounds and compositions for modulating EGFR Activity” (Novartis AG, priority 2012, dated 2016)
